What was measured:
Conditions in all cases: 25 µM pACP, 24 h, maintenance medium 1% FBS, ratio of viability to vehicle (PBS), at least three technical repetitions
HT29 = experiment: MTT primary screening of anticancer activity, HT29; type: cell-based, Human
From the text: (§1) We successfully chemically synthesized 40 pACPs for the purpose of in vitro or in vivo characterization of their potential anticancer efficacy. In the initial step, we conducted an in vitro primary screen of these 40 pACPs using a panel of 16 different cancer cell lines, including four human CRC lines (HT29, Caco2, HCT116, and […]), as well as 12 other cancer models (Table S4, Supporting Information). We deliberately selected a diverse panel of cell lines to assess the effect of pACPs across various genetic backgrounds. Briefly, the cancer cells were cultured in specific media (details provided in the Experimental Section) and then treated with pACPs at a final concentration of 25 µM. Peptides with minimum effective inhibition concentrations >25 µM were considered non‐ACPs. After exposure to pACPs, the survival rate of the cancer cells was measured using the MTT assay. Remarkably, 39 out of the 40 pACPs (97.5%) induced at least 20% inhibition in at least one cell line (Figure 3a and Table S5, Supporting Information). […] Thus, our method successfully identified pACPs with a very high rate of anticancer effects across various cancer cell lines.
(§2) To evaluate the activity of the 40 potentially effective pACPs, a panel of 16 cancer cell lines was treated, including human CRC cell lines (HT29, Caco‐2, HCT116). Details of the cell lines used, respective media, and culture conditions were presented in Table S1 (Supporting Information). Once the cells reached 60% confluence, it was incubated with each candidate peptide at a concentration of 25 µM pACPs for 24 h. Concurrently, the complete medium was replaced with a maintenance medium containing only 1% FBS. Subsequently, the viability of each cell line using the MTT Cell Proliferation and Cytotoxicity Assay Kit according to the manufacturer's instructions was assessed. […] For the CRC cell line CT26, it was calculated the CC50 value using two peptides (pACP1780 and pACP2283) with relevant data presented in Table S6 (Supporting Information). The calculation was performed using an online tool: https://www.aatbio.com/tools/ic50‐calculator.

Caco2 = experiment: MTT primary screening of anticancer activity, Caco2; type: cell-based, Human
From the text: as §1, §2

HCT116 = experiment: MTT primary screening of anticancer activity, HCT116; type: cell-based, Human
From the text: as §1, §2

CT26 = experiment: MTT primary screening of anticancer activity, CT26; type: cell-based, Murine
From the text: as §1, §2

MDA-MB-231 = experiment: MTT primary screening of anticancer activity, MDA-MB-231; type: cell-based
From the text: as §1, §2

MDA-MB-436 = experiment: MTT primary screening of anticancer activity, MDA-MB-436; type: cell-based
From the text: as §1, §2

MDA-MB-453 = experiment: MTT primary screening of anticancer activity, MDA-MB-453; type: cell-based
From the text: as §1, §2

MDA-MB-468 = experiment: MTT primary screening of anticancer activity, MDA-MB-468; type: cell-based
From the text: as §1, §2

SK-BR-3 = experiment: MTT primary screening of anticancer activity, SK-BR-3; type: cell-based
From the text: as §1, §2

BT474 = experiment: MTT primary screening of anticancer activity, BT474; type: cell-based
From the text: as §1, §2

T47D = experiment: MTT primary screening of anticancer activity, T47D; type: cell-based
From the text: as §1, §2

EFM192A = experiment: MTT primary screening of anticancer activity, EFM192A; type: cell-based
From the text: as §1, §2

B16 = experiment: MTT primary screening of anticancer activity, B16; type: cell-based, Mouse
From the text: as §1, §2

MCF7 = experiment: MTT primary screening of anticancer activity, MCF7; type: cell-based
From the text: as §1, §2

Hela = experiment: MTT primary screening of anticancer activity, Hela; type: cell-based, Human
From the text: as §1, §2

LCC = experiment: MTT primary screening of anticancer activity, LCC; type: cell-based
From the text: as §1, §2

| Sequence | Survival rate of cancer cells in primary screening (HT29) | Survival rate of cancer cells in primary screening (Caco2) | Survival rate of cancer cells in primary screening (HCT116) | Survival rate of cancer cells in primary screening (CT26) | Survival rate of cancer cells in primary screening (MDA-MB-231) | Survival rate of cancer cells in primary screening (MDA-MB-436) | Survival rate of cancer cells in primary screening (MDA-MB-453) | Survival rate of cancer cells in primary screening (MDA-MB-468) | Survival rate of cancer cells in primary screening (SK-BR-3) | Survival rate of cancer cells in primary screening (BT474) | Survival rate of cancer cells in primary screening (T47D) | Survival rate of cancer cells in primary screening (EFM192A) | Survival rate of cancer cells in primary screening (B16) | Survival rate of cancer cells in primary screening (MCF7) | Survival rate of cancer cells in primary screening (Hela) | Survival rate of cancer cells in primary screening (LCC) |
| --- | --- | --- | --- | --- | --- | --- | --- | --- | --- | --- | --- | --- | --- | --- | --- | --- |
| KSLQMVLSFVIIFADKKKTLATLIVAKKKKGW [pACP1096] | 0.71 | 1.00 | 1.00 | 1.00 | 1.00 | 0.69 | 1.00 | 1.00 | 1.00 | 1.00 | 1.00 | 1.00 | 1.00 | 1.00 | 1.00 | 1.00 |
| VAHGLDLLDGVVAEGVAAKGDDNTIGLAKRLRHCWNPFCKRPTTH [pACP2160] | 1.00 | 1.00 | 1.00 | 1.00 | 1.00 | 1.00 | 1.00 | 0.70 | 1.00 | 1.00 | 0.79 | 1.00 | 0.80 | 1.00 | 1.00 | 1.00 |
| SPLKGGGLLPPAGFCPRRVLCRLPTGWKKGKPSGQMPLFRIWRKVMVMK [pACP1985] | 1.00 | 1.00 | 1.00 | 0.77 | 0.10 | 0.0378 | 0.08 | 0.31 | 0.24 | 0.05 | 0.15 | 0.07 | 0.79 | 0.19 | 0.0132 | 1.00 |
| GLTSESVKSRCVKCLLYIKKSGATHDDNALHRTYCRNNCYRL [pACP550] | 1.00 | 1.00 | 1.00 | 1.00 | 1.00 | 1.00 | 1.00 | 1.00 | 1.00 | 1.00 | 1.00 | 1.00 | 0.78 | 1.00 | 1.00 | 1.00 |

— paper PMC10477861, “Efficient Mining of Anticancer Peptides from Gut Metagenome” (Advanced Science, 2023)
